From patent publication US12214092B2, “Systems and methods for treating biological fluids” (Cerus Corporation, priority 2017, dated 2025)

How the values were obtained:
[1] = Amotosalen concentration in platelets in 100% plasma (75 μM/340 nm or 150 μM/INT-100), HPLC; format: physicochemical
platelets = assay: Platelet quality, platelets in 100% plasma, amotosalen 30-110 μM, 340 nm device ~7.2 J/cm^2
Description: Multiple donor platelet units in 10000 plasma (5 units, ˜278-391 mL) were pooled and split into 5 units of ˜285 mL each, to be used as an untreated control, or treated with amotosalen at different concentrations, with ultraviolet A illumination using the 340 nm device. Amotosalen was added to a concentration of 30, 60, 90 or 110 μM, then pre-illumination (pre-UV) samples were removed for analysis, and the remainder of the units subjected to illumination at ˜7.2 J/cm^2. Post-illumination (Post-UV) samples were then removed for post-treatment analysis.

feline calicivirus (FCV) = conditions: previously reported (Irsch et al. 2011), 150 μM S-59 with broad spectrum UVA; cited from earlier work

## Cc1oc2c(C)c3oc(=O)cc(C)c3cc2c1COCCN [S-59, 3-(2-aminoethoxymethyl)-2,5,9-trimethylfuro[3,2-g]chromen-7-one]
[1]; 340/~6.4 (75 μM input)
  % Residual S-59: 2.5%
[1]; 340/~6.4 (75 μM input), Post-UVA
  S-59 concentration: 2.4 µM
[1]; 340/~6.4 (75 μM input), Pre-UVA
  S-59 concentration: 93.3 µM
[1]; 340/~7.2 (75 μM input)
  % Residual S-59: 2.0%
[1]; 340/~7.2 (75 μM input), Post-UVA
  S-59 concentration: 1.9 µM
[1]; 340/~7.2 (75 μM input), Pre-UVA
  S-59 concentration: 94.0 µM
[1]; INT-100 (150 μM input), Post-CAD
  S-59 concentration: 0.2 µM
[1]; INT-100 (150 μM input), Pre-UVA
  S-59 concentration: 173.2 µM
[1]; INT-100 ~3.6 J/cm^2 (150 μM input)
  % Residual S-59: 40.1%
[1]; INT-100 ~3.6 J/cm^2 (150 μM input), Post-UVA
  S-59 concentration: 69.4 µM
platelets; 30 μM, D3
  Glucose: 14.9 mmol/L
  LDH: 14.5 LDH IU/10^11 platelets
  Lactate: 6.9 mmol/L
  Platelet counts: 1155 x10^3 cells/μL
  Platelet lysis: 5.22%
  pCO2 at 37° C.: 38.1 mm Hg
  pH at 22° C.: 7.43
  pH at 37° C.: 7.21
  pO2 at 37° C.: 74.6 mm Hg
platelets; 30 μM, D7
  Glucose: 11.9 mmol/L
  LDH: 17.4 LDH IU/10^11 platelets
  Lactate: 12.1 mmol/L
  Platelet counts: 1155 x10^3 cells/μL
  Platelet lysis: 6.10%
  pCO2 at 37° C.: 31.2 mm Hg
  pH at 22° C.: 7.32
  pH at 37° C.: 7.10
  pO2 at 37° C.: 78.5 mm Hg
platelets; 30 μM, Post-UV
  Glucose: 15.9 mmol/L
  LDH: 15.0 LDH IU/10^11 platelets
  Lactate: 5.7 mmol/L
  Platelet counts: 1115 x10^3 cells/μL
  Platelet lysis: 5.31%
  pCO2 at 37° C.: 50.2 mm Hg
  pH at 22° C.: 7.37
  pH at 37° C.: 7.15
  pO2 at 37° C.: 13.9 mm Hg
platelets; 30 μM, Pre-UV
  Glucose: 16.0 mmol/L
  LDH: 13.7 LDH IU/10^11 platelets
  Lactate: 5.4 mmol/L
  Platelet counts: 1200 x10^3 cells/μL
  Platelet lysis: 4.92%
  pCO2 at 37° C.: 52.4 mm Hg
  pH at 22° C.: 7.36
  pH at 37° C.: 7.14
  pO2 at 37° C.: 28.6 mm Hg
platelets; 60 μM, D3
  Glucose: 15.0 mmol/L
  LDH: 13.9 LDH IU/10^11 platelets
  Lactate: 6.8 mmol/L
  Platelet counts: 1152 x10^3 cells/μL
  Platelet lysis: 5.15%
  pCO2 at 37° C.: 38.1 mm Hg
  pH at 22° C.: 7.43
  pH at 37° C.: 7.20
  pO2 at 37° C.: 65.8 mm Hg
platelets; 60 μM, D7
  Glucose: 11.6 mmol/L
  LDH: 36.5 LDH IU/10^11 platelets
  Lactate: 11.8 mmol/L
  Platelet counts: 1041 x10^3 cells/μL
  Platelet lysis: 11.82%
  pCO2 at 37° C.: 31.2 mm Hg
  pH at 22° C.: 7.32
  pH at 37° C.: 7.09
  pO2 at 37° C.: 78.0 mm Hg
platelets; 60 μM, Post-UV
  Glucose: 15.9 mmol/L
  LDH: 14.3 LDH IU/10^11 platelets
  Lactate: 5.6 mmol/L
  Platelet counts: 1117 x10^3 cells/μL
  Platelet lysis: 5.10%
  pCO2 at 37° C.: 49.2 mm Hg
  pH at 22° C.: 7.37
  pH at 37° C.: 7.15
  pO2 at 37° C.: 20.4 mm Hg
platelets; 60 μM, Pre-UV
  Glucose: 16.2 mmol/L
  LDH: 13.6 LDH IU/10^11 platelets
  Lactate: 5.4 mmol/L
  Platelet counts: 1160 x10^3 cells/μL
  Platelet lysis: 4.71%
  pCO2 at 37° C.: 52.4 mm Hg
  pH at 22° C.: 7.36
  pH at 37° C.: 7.14
  pO2 at 37° C.: 32.7 mm Hg
platelets; 90 μM, D3
  Glucose: 14.9 mmol/L
  Lactate: 7.3 mmol/L
  Platelet counts: 1157 x10^3 cells/μL
  Platelet lysis: 4.88%
  pCO2 at 37° C.: 40.3 mm Hg
  pH at 22° C.: 7.39
  pH at 37° C.: 7.17
  pO2 at 37° C.: 82.2 mm Hg
platelets; 90 μM, D7
  Glucose: 10.6 mmol/L
  Lactate: 13.6 mmol/L
  Platelet counts: 1199 x10^3 cells/μL
  Platelet lysis: 5.42%
  pCO2 at 37° C.: 33.5 mm Hg
  pH at 22° C.: 7.23
  pH at 37° C.: 7.00
  pO2 at 37° C.: 87.9 mm Hg
platelets; 90 μM, Post-UV
  Glucose: 15.9 mmol/L
  Lactate: 5.7 mmol/L
  Platelet counts: 1115 x10^3 cells/μL
  Platelet lysis: 5.13%
  pCO2 at 37° C.: 48.5 mm Hg
  pH at 22° C.: 7.37
  pH at 37° C.: 7.15
  pO2 at 37° C.: 24.1 mm Hg
platelets; 90 μM, Pre-UV
  Glucose: 15.9 mmol/L
  Lactate: 5.3 mmol/L
  Platelet counts: 1165 x10^3 cells/μL
  Platelet lysis: 4.97%
  pCO2 at 37° C.: 50.8 mm Hg
  pH at 22° C.: 7.37
  pH at 37° C.: 7.14
  pO2 at 37° C.: 54.6 mm Hg
platelets; 110 μM, D3
  Glucose: 14.7 mmol/L
  LDH: 17.0 LDH IU/10^11 platelets
  Lactate: 7.3 mmol/L
  Platelet counts: 1103 x10^3 cells/μL
  Platelet lysis: 5.90%
  pCO2 at 37° C.: 38.6 mm Hg
  pH at 22° C.: 7.40
  pH at 37° C.: 7.18
  pO2 at 37° C.: 69.9 mm Hg
platelets; 110 μM, D7
  Glucose: 10.4 mmol/L
  LDH: 16.0 LDH IU/10^11 platelets
  Lactate: 13.8 mmol/L
  Platelet counts: 1153 x10^3 cells/μL
  Platelet lysis: 6.13%
  pCO2 at 37° C.: 31.7 mm Hg
  pH at 22° C.: 7.24
  pH at 37° C.: 7.01
  pO2 at 37° C.: 90.5 mm Hg
platelets; 110 μM, Post-UV
  Glucose: 16.0 mmol/L
  LDH: 12.0 LDH IU/10^11 platelets
  Lactate: 5.4 mmol/L
  Platelet counts: 1239 x10^3 cells/μL
  Platelet lysis: 4.63%
  pCO2 at 37° C.: 48.1 mm Hg
  pH at 22° C.: 7.37
  pH at 37° C.: 7.14
  pO2 at 37° C.: 189.7 mm Hg
platelets; 110 μM, Pre-UV
  Glucose: 15.9 mmol/L
  LDH: 12.4 LDH IU/10^11 platelets
  Lactate: 5.3 mmol/L
  Platelet counts: 1209 x10^3 cells/μL
  Platelet lysis: 4.61%
  pCO2 at 37° C.: 51.8 mm Hg
  pH at 22° C.: 7.36
  pH at 37° C.: 7.13
  pO2 at 37° C.: 88.6 mm Hg
Feline calicivirus (FCV)
  reduction in titer of caliciviruses (FCV): 1.7-2.4 log 10
